Laboratory results reported in the NIST ThermoML archive (doi:10.1021/je200673a).

Test: molar heat capacity at constant pressure
Conditions: 101.33 kPa, Crystal, Vacuum adiabatic calorimetry

C(#Cc1ccccc1)c1ccccc1 [1,2-diphenylethyne]
Conditions | molar heat capacity at constant pressure [J/K/mol]
5 K | 0.4461
7.76 K | 1.66
8.24 K | 1.997
8.4 K | 2.155
8.56 K | 2.246
8.71 K | 2.325
8.87 K | 2.454
9.02 K | 2.473
9.17 K | 2.661
9.32 K | 2.644
9.46 K | 2.813
9.61 K | 3.003
9.75 K | 3.203
9.9 K | 3.352
10 K | 3.39
10.04 K | 3.408
10.23 K | 3.58
10.46 K | 3.861
10.7 K | 4.163
10.94 K | 4.495
11.19 K | 4.753
11.43 K | 4.952
11.67 K | 5.282
11.92 K | 5.556
12.16 K | 5.878
12.4 K | 6.207
12.65 K | 6.564
12.9 K | 6.777
13.14 K | 7.156
13.39 K | 7.478
13.65 K | 7.835
13.9 K | 8.246
14.15 K | 8.579
14.4 K | 8.944
14.66 K | 9.243
14.91 K | 9.637
15.16 K | 9.985
15.42 K | 10.37
15.67 K | 10.79
15.93 K | 11.12
16.19 K | 11.5
16.44 K | 11.93
16.7 K | 12.28
16.96 K | 12.67
17.22 K | 13.04
17.48 K | 13.53
17.74 K | 13.89
18 K | 14.4
18.26 K | 14.75
18.52 K | 15.13
18.78 K | 15.54
19.05 K | 15.99
19.31 K | 16.45
19.57 K | 16.8
19.83 K | 17.2
20 K | 17.46
20.1 K | 17.57
20.52 K | 18.22
21.06 K | 19.09
21.59 K | 19.97
22.13 K | 20.72
22.66 K | 21.52
23.2 K | 22.37
23.74 K | 23.22
24.28 K | 24.1
24.82 K | 25
25 K | 25.27
25.36 K | 25.89
25.9 K | 26.74
26.44 K | 27.46
26.99 K | 28.2
27.53 K | 29.01
28.08 K | 29.84
28.62 K | 30.62
29.17 K | 31.47
29.72 K | 32.26
30 K | 32.68
30.27 K | 33.13
30.82 K | 33.87
31.36 K | 34.72
31.91 K | 35.51
32.46 K | 36.31
33.02 K | 37.01
33.57 K | 37.75
34.12 K | 38.45
34.67 K | 39.14
35 K | 39.59
35.23 K | 39.87
35.78 K | 40.61
36.33 K | 41.23
36.89 K | 41.86
37.44 K | 42.57
38 K | 43.15
38.56 K | 43.79
39.11 K | 44.41
39.67 K | 45.07
40 K | 45.41
40.22 K | 45.63
40.78 K | 46.31
41.33 K | 46.9
41.89 K | 47.45
42.45 K | 48.18
43 K | 48.73
43.56 K | 49.34
44.12 K | 49.91
44.67 K | 50.46
45 K | 50.83
45.23 K | 51.09
45.79 K | 51.68
46.35 K | 52.17
46.91 K | 52.71
47.47 K | 53.2
48.03 K | 53.68
48.59 K | 54.18
49.15 K | 54.59
49.71 K | 55.12
50 K | 55.37
50.26 K | 55.73
50.82 K | 56.2
51.38 K | 56.69
51.94 K | 57.24
52.5 K | 57.84
53.06 K | 58.52
53.62 K | 59.22
54.18 K | 59.95
54.74 K | 60.54
55 K | 60.87
55.3 K | 61.31
55.87 K | 61.85
56.43 K | 62.34
56.99 K | 62.76
57.55 K | 63.28
58.11 K | 63.73
58.67 K | 64.14
59.23 K | 64.53
59.8 K | 64.94
60 K | 65.09
60.36 K | 65.36
60.92 K | 65.81
61.48 K | 66.28
62.04 K | 66.76
62.6 K | 67.25
63.16 K | 67.82
63.73 K | 68.11
64.29 K | 68.62
64.85 K | 68.97
65 K | 69.08
65.42 K | 69.41
65.98 K | 69.58
66.54 K | 69.95
67.11 K | 70.3
67.67 K | 70.73
68.23 K | 71.09
68.8 K | 71.47
69.36 K | 71.95
69.92 K | 72.22
70 K | 72.22
70.61 K | 72.52
71.41 K | 72.9
72.21 K | 73.45
73.01 K | 73.99
73.82 K | 74.48
74.62 K | 74.91
75 K | 75.15
75.42 K | 75.39
76.23 K | 75.72
77.03 K | 76.12
77.83 K | 76.43
78.64 K | 76.81
79.44 K | 77.36
80 K | 77.65
80.24 K | 77.8
81.05 K | 78.26
81.85 K | 78.59
82.56 K | 78.83
82.65 K | 79
83.36 K | 79.36
83.46 K | 79.49
84.16 K | 79.79
84.26 K | 79.97
84.96 K | 80.29
85 K | 80.26
85.77 K | 80.6
86.57 K | 81.07
87.37 K | 81.61
88.17 K | 81.87
88.98 K | 82.43
89.78 K | 82.92
90 K | 82.96
90.58 K | 83.29
91.39 K | 83.69
92.19 K | 84.3
92.99 K | 84.62
93.8 K | 85.08
94.6 K | 85.51
95 K | 85.79
95.4 K | 85.87
96.21 K | 86.49
97.01 K | 86.97
97.81 K | 87.46
98.61 K | 87.8
99.42 K | 88.33
100 K | 88.7
100.22 K | 88.79
101.02 K | 89.52
101.82 K | 89.71
102.62 K | 90.12
103.42 K | 90.81
104.22 K | 91.27
105.03 K | 91.64
105.84 K | 92.04
106.64 K | 92.61
107.45 K | 93.03
108.25 K | 93.65
109.06 K | 94.16
109.87 K | 94.48
110 K | 94.56
110.68 K | 94.84
111.49 K | 95.38
112.3 K | 95.96
113.12 K | 96.26
113.93 K | 96.77
114.74 K | 97.3
115.56 K | 97.84
116.37 K | 98.29
117.19 K | 98.7
118.01 K | 99.29
118.83 K | 99.69
119.65 K | 100.31
120 K | 100.39
120.47 K | 100.58
121.29 K | 101.29
122.11 K | 101.7
